{"source": "patent US7875270B2", "about": "“Treatment solution and method for preventing posterior capsular opacification by selectively inducing detachment and/or death of lens epithelial cells” (Abbott Medical Optics Inc., priority 2002, dated 2011)", "format_in_all_cases": "cell-based", "key": {"[1]": {"system": "human lens epithelial cells (LECs)", "assay": "Confluent LEC monolayers exposed to solutions; MTT cell viability and microscopy", "settings": "28 μM, 112 μM and 224 μM bumetanide, ≦200 mM NaCl, 3 μl of 5N NaOH"}, "[2]": {"system": "human LECs-CCCs freshly removed from cataract operation", "assay": "In situ treatment of LECs attached to capsulorhexis lens capsule (LECs-CCC)", "description": "The in situ effects of a treatment solution comprising dihydrochlorothiazide (DHCT) (a cotransport interference agent from the group of the thiazide and related diuretics) and hyperosmotic NaCl on human LECs is examined. The treatment is tested on LECs that are still attached to a continuous curvilinear capsulorhexis lens capsule (LECs-CCC) which are freshly removed from a human cataract operation.\nThe LECs-CCCs are obtained from a cataract operation and immediately put in freshly prepared Eagle's Minimum Essential Medium (MEM) supplemented with 2 mM glutamine, 25 mmol/L Hepes (pH 7.4) without foetal cow serum (FCS) and is transferred to the laboratory for evaluation. Viable LECs are identified by staining the LECs-CCCs for five minutes with 0.2% Trypan Blue. The sheets containing more than 70% viable LECs are used to assess the efficacy of the treatment. […]\nIn the first step, a hyperosmotic solution of NaCl is prepared by making a stock solution of 2 M NaCl by adding 58.44 g NaCl (supplied by Sigma Chemical Co., U.S.) to 500 ml dH2O. The desired concentration of osmotic NaCl is prepared by diluting the 2M stock solution with dH2O. For example, to make a hyperosmotic solution of 170 mM NaCl, the 2M NaCl stock solution was diluted with dH2O at a ratio of […]. To make a hyperosmotic solution of 200 mM NaCl, the 2M NaCl stock solution is diluted with dH2O at a ratio of 1 to 9. Final osmolarities (mOsm/kg/H2O) are determined by a freezing point depression method using cryoscopic osmometry.\nIn the second step, DHCT stock solution is made by adding 25 mg DHCT to 1 ml dH2O. […]\nThe treatment is applied by exposing the LECs-CCCs for five minutes in a small petri dish containing the treatment solution. The treatment solution is removed after five minutes exposure by a syringe and then the fresh PBS is added in the petri dish to wash away the treatment solution. The LECs-CCCs are washed three times. The changes of the LECS are monitored under a microscope. Microscope photographs are taken at 0, 2 and 5 minutes and after wash."}, "[3]": {"system": "human corneal endothelial cells (CEDCs)", "assay": "Confluent CEDC monolayers exposed to solutions; MTT cell viability", "settings": "28 μM, 112 μM and 224 μM bumetanide, ≦200 mM NaCl, 3 μl of 5N NaOH", "description": "As described below, the confluent monolayers of LECs, CEDCs, and RPECs grown in 96-well flat-bottom plates are exposed to varying concentrations of NaCl (an osmolyte) solution. Two hundred μl of NaCl solution (prepared as described below) are added to each well at concentrations of 137 mM, 170 mM, 340 mM, 680 mM, 1360 mM and 2000 mM NaCl, respectively. The solutions have a pH of 8.0±0.4. The concentrations of NaCl correspond to final osmolarities of about 285 to 4000 mOsm/L, respectively.\nThe primary and first passages of human lens epithelial cells, human corneal endothelial cells, and human retinal-pigmented epithelial cells are cultured. The LECs, the CEDCs, and the RPECs are isolated from post-mortem eyes by using standard techniques of cell isolation and enzyme digestion. See Uebersax E D, Grindstaff R D and Defoe D M Exp Eye Res. 2000 March; 70(3): 381-90; Wagner L M, Saleh S M, Boyle D J, and Takemoto D J. Mol Vis. 2002 Mar. 14; 8: 59-66; Cammarata P R, Schafer G, Chen S W, Guo Z, and Reeves R E. Invest Ophthalmol Vis Sci. 2002 February; 43(2): 425-33; Rakic J M, Galand A, and Vrensen G F. Exp Eye Res. 2000 November; 71(5): 489-94. LECs and CEDCs are cultured in Eagle's minimum essential medium (MEM). RPECs are cultured in Ham's F10 medium, supplemented with 2 mM glutamine, 25 mmol/L Hepes, pH 7.4, 10 U/mL penicillin, and 10 μg/mL streptomycin and 15% heat-inactivated foetal cow serum (FCS). […]\nAfter treatment, the treated cells are thoroughly washed, and cultured with fresh media for twelve hours before cell viability is assessed. The capability of these cells to survive at the indicated hypertonic stress levels is assessed by an MTT assay 12-24 hours post-exposure.\nMTT assay is an assay to assess mitochondria function, performed as described by Mosmann (Mosmann, T. J Immunol Methods. 1983 Dec. 16; 65(1-2): 55-63. The tetrazolium salt 3-(4,5-dimethylthiazol-2-yl)-2,5-diphenyl tetrazolium bromide (MTT; supplied by Sigma Chemical Co.) is dissolved in Phosphate's Balanced Salt (PBS) Solutions at 5 mg/ml and sterilized by passage through a 0.22 μm Millipore filter. MTT stock solution is added to growth media at a ratio of 1 to 10. Cells are incubated with this growth media for three to four hours. In cells that are alive at the time of adding MTT, mitochondrial dehydrogenase cleaves the tetrazolium ring into a dark blue formazan reaction product, which builds up in the cell. […] Cells in each well are scored as MTT-positive if they are completely filled with reaction product (in the case of unattached cells) or contain many formazan crystals emanating from multiple foci (in the case of attached or spread cells). MTT-reacted cultures are then lysised by dimethyl sulfoxide (DMSO) and read in a Microplate Reader to obtain a measure of cell viability. […]"}}, "data": [{"smiles": "CCCCNc1cc(C(=O)O)cc(S(N)(=O)=O)c1Oc1ccccc1", "note": "[bumetanide]", "values": [{"measurement": "LECs showing MTT negative response", "setting": "[1]", "result": "~100", "unit": "%"}, {"measurement": "LEC response under phase-contrast microscopic observation", "setting": "[1]; about ten minutes", "result": "nearly all of the LECs shrink, detach and/or die"}, {"measurement": "LEC changes after exposure", "setting": "[2]; 308 μm bumetanide and hyperosmotic 170 or 200 mM NaCl", "result": "do not detach, but arrest and die while shrunken"}, {"measurement": "LEC death by trypan blue exclusion", "setting": "[2]; 308 μm bumetanide and hyperosmotic NaCl, after washing", "result": "cells died after treatment"}, {"measurement": "CEDCs killed or removed", "setting": "[3]", "result": "< 30", "unit": "%"}]}]}
